The target of one assay is Genome polyprotein (dengue virus type 2, UniProt P29990). Description: Dengue-2 NS5 methyltransferase inhibitors, primary screen, biochemical, confirmation dose response (AID 588689). Format: functional.
Assay [1] addresses T1, Polyadenylate-binding protein 1 (Homo sapiens, UniProt P11940). Description: PABP1 MLLE–PAM2 binding inhibitor potency, dose response, biochemical, fluorescence polarization, FITC-PAM2 peptide (AID 602259). Format: functional. Conditions: read-out: IC50_Mean. In general terms: Fluorescence polarisation rises when a labelled molecule tumbles more slowly, as on binding a larger partner.

The target in assay [2] is T1, Polyadenylate-binding protein 1. Description: PABP1 MLLE–PAM2 interaction inhibitors, dose response, miRNA deadenylation inhibitor project, biochemical, fluorescence polarization, Cy5-PAM2 peptide, secondary (AID 602260). It is filed as functional. Conditions: read-out: IC50_Mean.
For assay [3], the target named is FAD-linked sulfhydryl oxidase ALR (Homo sapiens, UniProt P55789). Description: inhibitors of human ALR sulfhydryl oxidase, dose response, biochemical, H2O2 detection, luminescence, cherry-pick (AID 493248).
For a further assay, the target named is T2, Protein RecA (Mycobacterium tuberculosis, UniProt P9WHJ3).
T2 sequence (P9WHJ3 whole entry): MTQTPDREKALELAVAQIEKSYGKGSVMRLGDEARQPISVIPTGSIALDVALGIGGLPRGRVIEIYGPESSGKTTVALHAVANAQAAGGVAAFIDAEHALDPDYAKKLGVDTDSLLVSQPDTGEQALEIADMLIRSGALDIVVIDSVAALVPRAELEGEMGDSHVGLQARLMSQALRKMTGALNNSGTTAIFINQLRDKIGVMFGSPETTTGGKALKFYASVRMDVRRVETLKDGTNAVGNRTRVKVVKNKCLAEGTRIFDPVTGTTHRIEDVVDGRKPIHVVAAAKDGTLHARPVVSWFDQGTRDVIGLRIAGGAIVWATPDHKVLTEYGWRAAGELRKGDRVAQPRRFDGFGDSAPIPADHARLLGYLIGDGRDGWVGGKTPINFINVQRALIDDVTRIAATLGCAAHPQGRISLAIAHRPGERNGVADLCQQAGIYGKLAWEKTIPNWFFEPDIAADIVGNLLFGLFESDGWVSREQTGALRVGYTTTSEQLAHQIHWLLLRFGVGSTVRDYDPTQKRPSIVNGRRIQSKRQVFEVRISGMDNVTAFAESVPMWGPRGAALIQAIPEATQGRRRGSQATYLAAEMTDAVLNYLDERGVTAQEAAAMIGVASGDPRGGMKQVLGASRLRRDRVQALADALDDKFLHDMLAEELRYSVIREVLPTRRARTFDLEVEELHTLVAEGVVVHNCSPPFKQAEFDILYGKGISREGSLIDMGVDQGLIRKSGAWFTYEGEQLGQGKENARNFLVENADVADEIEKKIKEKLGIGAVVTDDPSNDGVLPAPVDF
Description: Fluorescence Cell-Free Homogeneous Dose Retest to Identify Inhibitors of RecA-Intein Splicing Activity. [Related pubchem assays (depositor defined):AID2097, AID2223, AID489010, AID492950]. Format: functional.

Assay [4] deals with T3, Replicative DNA helicase DnaB (Mycobacterium tuberculosis, UniProt P9WMR3).
T3 sequence (P9WMR3 whole entry): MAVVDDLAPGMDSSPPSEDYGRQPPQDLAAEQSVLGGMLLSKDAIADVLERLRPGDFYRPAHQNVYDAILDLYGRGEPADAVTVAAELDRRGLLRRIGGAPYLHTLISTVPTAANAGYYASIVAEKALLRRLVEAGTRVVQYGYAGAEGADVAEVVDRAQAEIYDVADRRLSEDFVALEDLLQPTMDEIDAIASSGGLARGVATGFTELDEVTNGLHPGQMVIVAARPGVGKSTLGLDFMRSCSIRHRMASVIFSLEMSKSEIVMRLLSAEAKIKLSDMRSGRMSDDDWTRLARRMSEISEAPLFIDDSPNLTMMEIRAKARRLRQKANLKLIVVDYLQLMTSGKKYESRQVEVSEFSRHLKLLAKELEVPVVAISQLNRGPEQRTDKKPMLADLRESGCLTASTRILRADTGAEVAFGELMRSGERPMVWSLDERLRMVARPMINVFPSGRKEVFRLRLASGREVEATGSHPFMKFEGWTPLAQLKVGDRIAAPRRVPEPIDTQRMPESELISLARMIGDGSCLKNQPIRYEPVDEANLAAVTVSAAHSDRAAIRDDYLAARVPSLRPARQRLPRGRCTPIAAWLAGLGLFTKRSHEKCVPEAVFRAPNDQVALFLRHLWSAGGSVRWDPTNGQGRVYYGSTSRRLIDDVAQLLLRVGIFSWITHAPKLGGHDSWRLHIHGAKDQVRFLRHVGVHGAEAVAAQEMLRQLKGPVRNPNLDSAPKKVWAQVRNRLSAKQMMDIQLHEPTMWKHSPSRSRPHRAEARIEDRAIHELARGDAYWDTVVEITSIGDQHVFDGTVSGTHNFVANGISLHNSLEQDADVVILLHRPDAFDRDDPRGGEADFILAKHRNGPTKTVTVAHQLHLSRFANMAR
Description: DnaB intein splicing inhibitors, dose response, biochemical, cell-free fluorescence (AID 449749). It is filed as functional.

Another assay has as its system P388/ADR. Description: cells. Format: functional. Particulars: Mus musculus.
The subject of another assay is SN12K1. Description: cells. It is filed as functional. Conditions: Homo sapiens.
A further assay relates to P388. Description: cells. Format: functional. Conditions: Mus musculus.
The target of assay [5] is T4, Rac GTPase-activating protein 1 (Homo sapiens, UniProt Q9H0H5).
T4 sequence (Q9H0H5 whole entry): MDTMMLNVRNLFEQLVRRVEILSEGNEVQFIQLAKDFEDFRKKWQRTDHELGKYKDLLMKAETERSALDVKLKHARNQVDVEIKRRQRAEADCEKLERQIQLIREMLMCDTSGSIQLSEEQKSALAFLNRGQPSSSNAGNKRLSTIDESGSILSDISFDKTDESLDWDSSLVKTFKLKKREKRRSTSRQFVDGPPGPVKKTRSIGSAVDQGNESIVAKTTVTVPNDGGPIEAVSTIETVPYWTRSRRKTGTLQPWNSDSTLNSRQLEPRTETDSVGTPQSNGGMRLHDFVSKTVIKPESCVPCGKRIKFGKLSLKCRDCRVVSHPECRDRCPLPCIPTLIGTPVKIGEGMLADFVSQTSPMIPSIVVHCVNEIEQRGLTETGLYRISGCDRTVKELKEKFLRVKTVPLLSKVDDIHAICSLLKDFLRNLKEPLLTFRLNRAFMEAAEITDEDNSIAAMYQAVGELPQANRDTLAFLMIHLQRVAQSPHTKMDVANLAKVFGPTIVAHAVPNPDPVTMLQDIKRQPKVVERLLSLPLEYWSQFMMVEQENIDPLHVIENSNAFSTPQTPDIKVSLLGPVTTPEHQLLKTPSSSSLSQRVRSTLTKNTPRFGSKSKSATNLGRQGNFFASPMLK
Description: MgcRacGAP GTPase-activating activity inhibitors, confirmation, biochemical, ADP Hunter fluorescence, primary and confirmatory (AID 624330). It is filed as functional.

Structures are written as SMILES. The source made the active and inactive calls.

T1 sequence (P11940 whole entry): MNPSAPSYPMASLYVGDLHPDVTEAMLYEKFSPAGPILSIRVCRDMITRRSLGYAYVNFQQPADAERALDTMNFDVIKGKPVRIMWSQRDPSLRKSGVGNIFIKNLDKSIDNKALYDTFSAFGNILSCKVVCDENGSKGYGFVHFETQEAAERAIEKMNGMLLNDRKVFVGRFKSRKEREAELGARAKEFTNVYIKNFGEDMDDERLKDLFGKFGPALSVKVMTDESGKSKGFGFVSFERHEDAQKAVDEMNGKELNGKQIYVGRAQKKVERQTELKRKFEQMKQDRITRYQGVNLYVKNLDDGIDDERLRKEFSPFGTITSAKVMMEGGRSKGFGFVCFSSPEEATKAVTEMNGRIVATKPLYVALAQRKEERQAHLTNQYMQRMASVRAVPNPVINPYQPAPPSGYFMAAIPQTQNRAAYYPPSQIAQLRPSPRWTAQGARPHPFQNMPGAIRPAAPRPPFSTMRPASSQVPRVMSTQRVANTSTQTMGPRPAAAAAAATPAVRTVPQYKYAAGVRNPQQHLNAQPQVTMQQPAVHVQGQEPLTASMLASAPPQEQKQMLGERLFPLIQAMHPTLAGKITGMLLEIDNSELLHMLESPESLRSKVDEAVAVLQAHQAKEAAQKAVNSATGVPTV
Sequence of Genome polyprotein (P29990 2492-3391 limits assumed): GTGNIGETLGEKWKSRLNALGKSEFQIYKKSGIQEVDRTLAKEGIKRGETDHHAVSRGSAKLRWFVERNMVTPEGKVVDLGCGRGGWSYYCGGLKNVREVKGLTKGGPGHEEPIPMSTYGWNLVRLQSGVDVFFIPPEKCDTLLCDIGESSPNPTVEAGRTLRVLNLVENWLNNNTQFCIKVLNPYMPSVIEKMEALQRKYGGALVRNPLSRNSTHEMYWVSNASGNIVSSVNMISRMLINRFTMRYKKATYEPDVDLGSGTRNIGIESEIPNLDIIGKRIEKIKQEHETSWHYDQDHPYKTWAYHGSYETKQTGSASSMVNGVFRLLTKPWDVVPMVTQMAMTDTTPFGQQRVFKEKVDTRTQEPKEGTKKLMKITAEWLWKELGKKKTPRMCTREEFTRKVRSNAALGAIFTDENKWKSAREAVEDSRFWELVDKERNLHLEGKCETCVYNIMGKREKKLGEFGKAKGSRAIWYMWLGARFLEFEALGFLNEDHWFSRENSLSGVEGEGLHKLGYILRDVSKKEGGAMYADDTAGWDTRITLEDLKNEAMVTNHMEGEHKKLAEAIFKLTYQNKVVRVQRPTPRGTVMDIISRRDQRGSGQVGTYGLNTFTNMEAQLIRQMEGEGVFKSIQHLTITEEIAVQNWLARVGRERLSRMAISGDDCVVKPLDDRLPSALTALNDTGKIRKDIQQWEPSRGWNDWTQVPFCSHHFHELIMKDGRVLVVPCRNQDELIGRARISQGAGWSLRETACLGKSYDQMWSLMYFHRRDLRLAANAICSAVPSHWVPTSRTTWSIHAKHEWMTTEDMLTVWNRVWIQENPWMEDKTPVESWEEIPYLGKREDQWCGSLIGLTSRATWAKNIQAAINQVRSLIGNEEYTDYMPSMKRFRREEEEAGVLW
Sequence of FAD-linked sulfhydryl oxidase ALR (P55789 whole entry): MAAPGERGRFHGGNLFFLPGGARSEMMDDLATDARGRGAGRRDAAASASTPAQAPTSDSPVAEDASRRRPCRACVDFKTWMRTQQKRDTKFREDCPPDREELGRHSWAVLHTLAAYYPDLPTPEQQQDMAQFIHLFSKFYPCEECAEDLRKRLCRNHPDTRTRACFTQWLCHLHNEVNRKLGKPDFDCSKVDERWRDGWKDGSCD

With `O=C(O)c1ccccc1-c1ccccc1C(=O)Nc1ccc2c(c1)C(=O)c1ccccc1-2`, on Genome polyprotein, the IC50 is 58.9 µM (active).
Regarding `COc1ccccc1-n1c(N)c(C(N)=O)sc1=S`, the IC50 in assay [1] and in assay [2] was > 66 µM (inactive) each time.
As for `C[C@H](NS(=O)(=O)c1ccc2c(c1)OCCCO2)C(=O)N1CCN(c2ccc(F)cc2)CC1`, the IC50 in [1] and in assay [2] was > 66 µM (inactive) each time.
As for `CCN(CC)S(=O)(=O)c1ccc(N2CCOCC2)c(NC(=O)CCC2CCCCC2)c1`, the IC50 in assay [1] and in assay [2] was > 66 µM (inactive) each time.
As to `Cc1cc([N+](=O)[O-])ccc1N1C(=O)c2ccc(C(=O)Nc3ccccc3C(=O)O)cc2C1=O`, the AC50 in assay [3] is 57 µM (active). The IC50 at Genome polyprotein was 67.9 µM (active).
As for `CC(=O)Nc1ccc(Nc2ccc3c4c(cc(=O)n3C)-c3ccccc3C(=O)c24)cc1`, the IC50 in assay [1] is 59.4 µM (inactive); in [2], > 66 µM (inactive).
`CC(=O)Oc1ccc(/C=C2/C(=O)N(c3ccccc3)N=C2C)cc1`: the EC50 at Protein RecA is 2.72 µM (active). Besides, the IC50 on Genome polyprotein was 56 µM (active). In addition, the concentration at half-maximal activity (AC50) in [4] is 2.76 µM (active).
Regarding `C[C@@H]1CCC2[C@](C)(CO)[C@@H](O)CC[C@]2(C)[C@@]12CC[C@@](CO)(CC(=O)O)O2` (some centres not stated), the IC50 in [1] and in assay [2] was > 66 µM (inactive) in each case.
With `C=CCn1c2ccccc2c2c(C)c3cnccc3c(C)c21`, the GI50 is 11.2 µM (inactive) in the assay on P388/ADR, 8.41 µM (inactive) with SN12K1 and 3.34 µM (inactive) in the assay on P388.
Taken in the same sequence, the figures for `COc1cc(/C=C(/C#N)C(N)=O)ccc1O` were > 100 µM (inactive), > 100 µM (inactive) and > 100 µM (inactive).
Consider `C=CC12CN(C)C3C4COC(CC41)C1(C(=O)Nc4ccccc41)C32` (configuration not stated), for which the values for the GI50 with P388/ADR, in the assay with SN12K1 and in the assay on P388 were 136 µM (inactive), 185 µM (inactive) and 63.1 µM (inactive), respectively.
As to `CC1CCC2(C(=O)O)CCC3(C)C(=CCC4C5(C)CCC(O)C(C)(C)C5CCC43C)C2C1C` (configuration not stated), the figures for the GI50 with P388/ADR, with SN12K1 and in the assay on P388 were 2.1 µM (inactive), 4.12 µM (inactive) and 2.27 µM (inactive), respectively.
The corresponding values for `N/C(=N\O)N/N=C\c1c(O)cc(O)cc1O` are 17.5 µM (inactive), 15.7 µM (inactive) and > 44.4 µM (inactive).
The corresponding values for `CC1=C2C(O)C(C(C)C(=O)NCC(C)C)CCC2(C)C=CC1=O` (configuration not stated) are > 100 µM (inactive), > 100 µM (inactive) and > 100 µM (inactive).
With `Cc1[nH]c(=O)[nH]c(=O)c1/C=C/C(=O)NC(CO)C[S+]([O-])Cc1ccccc1` (configuration not stated), the GI50 was > 300 µM (inactive) in the assay on P388/ADR, > 300 µM (inactive) with SN12K1 and > 179 µM (inactive) with P388.
With `O=C1c2ccccc2OCC1/C=N/O` (configuration not stated), the values for the GI50 in the assay on SN12K1 and in the assay with P388 were 40.5 µM (inactive) and 18.9 µM (inactive), respectively.
`COc1cc(-c2ccc(/N=N/c3ccc4c(S(=O)(=O)O)cc(S(=O)(=O)O)c(N)c4c3O)c(OC)c2)ccc1/N=N/c1ccc2c(S(=O)(=O)O)cc(S(=O)(=O)O)c(N)c2c1O`: the GI50 in the assay on P388/ADR, in the assay on SN12K1 and with P388 was > 100 µM (inactive) each time.
`CC1[C@@H]2CC=C3[C@H]4CCC5Cc6nc7c(nc6C[C@@]5(C)C4CC(=O)[C@]32CO[C@]12OC(C)(C)CC2O)CC1CC[C@@H]2C3=C[C@H]4O[C@@]5(O[C@@](C)(CO)C[C@@H]5O)C(C)[C@@]4(O)[C@]3(C)[C@@H](O)CC2[C@]1(C)C7` (some centres not stated): the concentration for 50% growth inhibition (GI50) with P388/ADR is 0.00152 µM (active); in the assay on SN12K1, 0.000365 µM (active); in the assay with P388, 0.000365 µM (active).
Regarding `COc1cc(/C=N/NC(=O)CCNC(=O)c2ccccc2Cl)ccc1O`, the half-maximal activity concentration (AC50) in [3] is 3.1 µM (active). In addition, in assay [5], the IC50 is 29 µM (active).

Usually AC50 stands for the concentration giving half of the maximal activity seen. The term EC50 denotes the concentration needed to bring the measured effect to its halfway point. In general, GI50 refers to the concentration that inhibits growth by half.

The values are drawn from ChEMBL document CHEMBL1201862, “PubChem BioAssay data set” (2004).
